Experimental data reported in patent publication US12390441B2, “Immunomodulating o-het/aryl azalides” (Zoetis Services LLC, priority 2020, dated 2025).
Marks after values point to notes of the source that are not given here.

Legend:
[1] = tested on: IL-1β; assay: Whole blood assay, LPS stimulation, MSD cytokine detection; type: cell-based, bovine; details: fresh whole bovine blood, LPS stimulation; drug concentration giving overstimulation (OS) of IL-1β
[2] = tested on: P. multocida 46572; assay: In vivo mouse lung infection challenge model (murine); parameters: species or system CD-1 female mice
Description: The challenge organism was P. multocida 46572. Target challenge concentration was 5×10^2 CFU/mouse. Isolated colonies from overnight growth (37° C. with 5% CO2) on trypticase soy agar (TSA II) blood plates were transferred to room temperature Brain Heart Infusion Broth (BHIB). The broth culture was incubated 3.5-4 hours to approximately mid-log phase of growth, as measured by forward light scatter at 600 nm (OD600, 0.200). The culture was centrifuged to collect the bacterial pellet. The pellet was re-suspended in BHIB and adjusted to provide an approximate concentration of 2.7 log^10 colony forming units (CFU) in 0.04 mL at the highest concentration. The challenge inoculum concentration was confirmed by serial dilutions of the inoculum for CFU enumeration. On Day −5, CD-1 female mice were received. Mice were given standard rodent diet and water ad libitum. On Day 0, bacterial inoculum (0.04 mL) was administered to each mouse (n=36) intranasally. Compounds of the invention were dosed at 20 mg/kg (0.1 mL) in a buffered (˜pH 5.4) propylene glycol, monothioglycerol and water solution by subcutaneous injection. Animals were observed from Days 1-10. The study was terminated on Day 10. In addition, some treatment groups were sampled at 6, 24, and 48 hours post bacterial challenge for RNA sequence analysis of lung tissue.
The murine efficacy model (P. multocida challenge) was optimized, and the treatment group size was powered to be able to observe statistically significant improvement of survival to expected ranges for immunomodulatory compounds. The experimental design was a randomized complete block design. Mice were individually identified and treatment groups comingled within a cage, with every treatment group equally represented across cages. Mortality was the primary variable. Mortality data was analyzed using a generalized mixed model with fixed effect of treatment and random effect of block. Survival time was also analyzed using the SAS PHREG (survival analysis) procedure to examine whether there were significant differences between treatment groups and the control group. Numerous compounds of the invention and M9 (positive control) were tested in this model at a dose of 20 mg/kg (Table 3). Typical percent survival for no treatment control is in the range of 0-20% based on study to study variation in challenge inoculum and rate of infection. […] Mouse survival for M9 was about 90-100%, further supporting its residual antibacterial properties against the bacterial strain. Harmonized survival accounts for % survival relative to vehicle (“−” control) and M9 (“+” control)) survival data (Table 3).

[3] = tested on: TNF-α; assay: Whole blood assay, LPS stimulation, MSD cytokine detection; type: cell-based; details: fresh whole bovine blood
[4] = tested on: IL-6; assay: as above; type: cell-based; details: fresh whole bovine blood
[5] = tested on: BRD pathogens, M. haemolytica and P. multocida; assay: In-vitro MIC model, BRD pathogen screening panel; type: cell-based, Mannheimia haemolytica; Pasteurella multocida; details: at least one BRD strain
[6] = harmonized survival relative to vehicle and M9, 20 mg/kg subcutaneous, Day 10

SMILES	% Survival ([2]; 46572, sc, 20 mg/kg, 240 h) [%]	% Survival [2, 6] [%]	further results
CC[C@H]1OC(=O)[C@H](C)[C@@H](O[C@H]2C[C@@](C)(OC)[C@@H](O)[C@H](C)O2)[C@H](C)[C@@H](O[C@@H]2O[C@H](C)C[C@H](NC)[C@H]2Oc2ccccc2)[C@](C)(O)C[C@@H](C)CN(C)[C@H](C)[C@@H](O)[C@]1(C)O [Example A-26, (2R,3S,4R,5R,8R,10R,11R,12S,13S,14R)-2-ethyl-3,4,10-trihydroxy-13-(((2R,4R,5S,6S)-5-hydroxy-4-methoxy-4,6-dimethyltetrahydro-2H-pyran-2-yl)oxy)-3,5,6,8,10,12,14-heptamethyl-11-(((2S,3R,4S,6R)-6-methyl-4-(methylamino)-3-phenoxytetrahydro-2H-pyran-2-yl)oxy)-1-oxa-6-azacyclopentadecan-15-one]	1		IL-1ß OS of LPS [1]: 16 µM; IC50 ([3]; Bos taurus): 20 µM
CC[C@H]1OC(=O)[C@H](C)[C@@H](O)[C@H](C)[C@@H](O[C@@H]2O[C@H](C)C[C@H](N(C)C(=O)N(C)c3ccccc3)[C@H]2Oc2ccccc2)[C@](C)(O)C[C@@H](C)CN(C)[C@H](C)[C@@H](O)[C@]1(C)O [Example C-12, 1-((2S,3R,4S,6R)-2-(((2R,3S,4R,5R,8R,10R,11R,12S,13S,14R)-2-ethyl-3,4,10,13-tetrahydroxy-3,5,6,8,10,12,14-heptamethyl-15-oxo-1-oxa-6-azacyclopentadecan-11-yl)oxy)-6-methyl-3-phenoxytetrahydro-2H-pyran-4-yl)-1,3-dimethyl-3-phenylurea]	12		
CC[C@H]1OC(=O)[C@H](C)[C@@H](O)[C@H](C)[C@@H](O[C@@H]2O[C@H](C)C[C@H](N(C)C(=O)N(C)c3cc(C)n(C)n3)[C@H]2Oc2ccccc2)[C@](C)(O)C[C@@H](C)CN[C@H](C)[C@@H](O)[C@]1(C)O [Example C-26, 1-(1,5-dimethyl-1H-pyrazol-3-yl)-3-((2S,3R,4S,6R)-2-(((2R,3S,4R,5R,8R,10R,11R,12S,13S,14R)-2-ethyl-3,4,10,13-tetrahydroxy-3,5,8,10,12,14-hexamethyl-15-oxo-1-oxa-6-azacyclopentadecan-11-yl)oxy)-6-methyl-3-phenoxytetrahydro-2H-pyran-4-yl)-1,3-dimethylurea]	8		
CC[C@H]1OC(=O)[C@H](C)[C@@H](O)[C@H](C)[C@@H](O[C@@H]2O[C@H](C)C[C@H](N(C)C(=O)N(C)c3cc(C)n(C)n3)[C@H]2Oc2ccccc2)[C@](C)(O)C[C@@H](C)CN(C)[C@H](C)[C@@H](O)[C@]1(C)O [Example C-30, 1-(1,5-dimethyl-1H-pyrazol-3-yl)-3-((2S,3R,4S,6R)-2-(((2R,3S,4R,5R,8R,10R,11R,12S,13S,14R)-2-ethyl-3,4,10,13-tetrahydroxy-3,5,6,8,10,12,14-heptamethyl-15-oxo-1-oxa-6-azacyclopentadecan-11-yl)oxy)-6-methyl-3-phenoxytetrahydro-2H-pyran-4-yl)-1,3-dimethylurea]	0		
CCCNC[C@]1(O)[C@H](C)O[C@@H](O[C@H]2[C@H](C)[C@@H](O[C@@H]3O[C@H](C)C[C@H](N(C)C)[C@H]3Oc3ccccc3)[C@](C)(O)C[C@@H](C)CN[C@H](C)[C@@H](O)[C@](C)(O)[C@@H](CC)OC(=O)[C@@H]2C)C[C@@]1(C)OC [Example E-3, (2R,3S,4R,5R,8R,10R,11R,12S,13S,14R)-11-(((2S,3R,4S,6R)-4-(dimethylamino)-6-methyl-3-phenoxytetrahydro-2H-pyran-2-yl)oxy)-2-ethyl-3,4,10-trihydroxy-13-(((2R,4R,5S,6S)-5-hydroxy-4-methoxy-4,6-dimethyl-5-((propylamino)methyl)tetrahydro-2H-pyran-2-yl)oxy)-3,5,8,10,12,14-hexamethyl-1-oxa-6-azacyclopentadecan-15-one]	37		IL-1ß OS of LPS [1]: 13 µM; IC50 ([3]; Bos taurus): 8 µM
CCCNC[C@]1(O)[C@H](C)O[C@@H](O[C@H]2[C@H](C)[C@@H](O[C@@H]3O[C@H](C)C[C@H](NC)[C@H]3Oc3cc(F)c(F)c(F)c3)[C@](C)(O)C[C@@H](C)CN[C@H](C)[C@@H](O)[C@](C)(O)[C@@H](CC)OC(=O)[C@@H]2C)C[C@@]1(C)OC [Example E-90]			IL-1ß OS of LPS [1]: 6 µM; IC50 [3]: 12 µM; IC50 [4]: 8 µM; MIC flag at the example number (Table E) [5]: E-90* (MIC ≤ 64 μg/mL for at least one BRD strain)
CCCNC[C@]1(O)[C@H](C)O[C@@H](O[C@H]2[C@H](C)[C@@H](O[C@@H]3O[C@H](C)C[C@H](N(C)C(=O)N(C)c4cc(C)n(C)n4)[C@H]3Oc3ccccc3)[C@](C)(O)C[C@@H](C)CN[C@H](C)[C@@H](O)[C@](C)(O)[C@@H](CC)OC(=O)[C@@H]2C)C[C@@]1(C)OC [Example F-19, 1-(1,5-dimethyl-1H-pyrazol-3-yl)-3-((2S,3R,4S,6R)-2-(((2R,3S,4R,5R,8R,10R,11R,12S,13S,14R)-2-ethyl-3,4,10-trihydroxy-13-(((2R,4R,5S,6S)-5-hydroxy-4-methoxy-4,6-dimethyl-5-((propylamino)methyl)tetrahydro-2H-pyran-2-yl)oxy)-3,5,8,10,12,14-hexamethyl-15-oxo-1-oxa-6-azacyclopentadecan-11-yl)oxy)-6-methyl-3-phenoxytetrahydro-2H-pyran-4-yl)-1,3-dimethylurea]	35		
CC[C@H]1OC(=O)[C@H](C)[C@@H](O[C@H]2C[C@@](C)(OC)[C@](O)(CN3CCOCC3)[C@H](C)O2)[C@H](C)[C@@H](O[C@@H]2O[C@H](C)C[C@H](N(C)C)[C@H]2Oc2ccccc2)[C@](C)(O)C[C@@H](C)CN[C@H](C)[C@@H](O)[C@]1(C)O [Example H-3, (2R,3S,4R,5R,8R,10R,11R,12S,13S,14R)-11-(((2S,3R,4S,6R)-4-(dimethylamino)-6-methyl-3-phenoxytetrahydro-2H-pyran-2-yl)oxy)-2-ethyl-3,4,10-trihydroxy-13-(((2R,4R,5S,6S)-5-hydroxy-4-methoxy-4,6-dimethyl-5-(morpholinomethyl)tetrahydro-2H-pyran-2-yl)oxy)-3,5,8,10,12,14-hexamethyl-1-oxa-6-azacyclopentadecan-15-one]	8		
CCCNC[C@]1(O)[C@H](C)O[C@@H](O[C@H]2[C@H](C)[C@@H](O[C@@H]3O[C@H](C)C[C@H](N(C)C(=O)N(C)c4ccccc4)[C@H]3O)[C@](C)(O)C[C@@H](C)CN[C@H](C)[C@@H](O)[C@](C)(O)[C@@H](CC)OC(=O)[C@@H]2C)C[C@@]1(C)OC [Example H-11]		36	
CCCNC[C@]1(O)[C@H](C)O[C@@H](O[C@H]2[C@H](C)[C@@H](O[C@@H]3O[C@H](C)C[C@H](N(C)C(=O)N(C)c4ccc(C(F)(F)F)cc4)[C@H]3O)[C@](C)(O)C[C@@H](C)CN[C@H](C)[C@@H](O)[C@](C)(O)[C@@H](CC)OC(=O)[C@@H]2C)C[C@@]1(C)OC [Example H-13]		59	
CCCNC[C@]1(O)[C@H](C)O[C@@H](O[C@H]2[C@H](C)[C@@H](O[C@@H]3O[C@H](C)C[C@H](N(C)C(=O)N(c4ccccc4)c4ccccc4)[C@H]3O)[C@](C)(O)C[C@@H](C)CN[C@H](C)[C@@H](O)[C@](C)(O)[C@@H](CC)OC(=O)[C@@H]2C)C[C@@]1(C)OC [Example H-39]		44	
CCCNC[C@]1(O)[C@H](C)O[C@@H](O[C@H]2[C@H](C)[C@@H](O[C@@H]3O[C@H](C)C[C@H](N(Cc4nccs4)C(=O)N(C)c4ccccc4)[C@H]3O)[C@](C)(O)C[C@@H](C)CN[C@H](C)[C@@H](O)[C@](C)(O)[C@@H](CC)OC(=O)[C@@H]2C)C[C@@]1(C)OC [Example H-64]		0	
